Measurements published in ChEMBL document CHEMBL4765380, “Synthesis, structure and anticancer activity of new geldanamycin amine analogs containing C(17)- or C(20)- flexible and rigid arms as well as closed or open ansa-bridges” (Eur J Med Chem, 2020).

Legend:
SK-BR-3 = assay: Antiproliferative activity against human SK-BR-3 cells assessed as reduction in cell growth incubated for 72 hrs by SRB assay; format: functional, cell-based; details: SK-BR-3, 72 h
[1] = Selectivity index, ratio of IC50 for cytotoxicity against human HDF cells to IC50 for cytotoxicity against human SK-BR-3 cells; format: toxicity, cell-based; details: HDF cells versus SK-BR-3 cells, read-out: Ratio IC50
[2] = Selectivity index, ratio of IC50 for cytotoxicity against human HDF cells to IC50 for cytotoxicity against human PC-3 cells; format: toxicity, cell-based; details: HDF cells versus PC-3 cells, read-out: Ratio IC50
[3] = Selectivity index, ratio of IC50 for cytotoxicity against human HDF cells to IC50 for cytotoxicity against human A549 cells; format: toxicity, cell-based; details: HDF cells versus A549 cells, read-out: Ratio IC50
A549 = assay: Antiproliferative activity against human A549 cells assessed as reduction in cell growth incubated for 72 hrs by SRB assay; format: functional, cell-based; details: A549, 72 h
U-87 MG = assay: Antiproliferative activity against human U-87 MG cells assessed as reduction in cell growth incubated for 72 hrs by SRB assay; format: functional, cell-based, U-87MG ATCC
[4] = Selectivity index, ratio of IC50 for cytotoxicity against human HDF cells to IC50 for cytotoxicity against human U-87 MG cells; format: toxicity, cell-based; details: HDF cells versus U-87 MG cells, read-out: Ratio IC50
PC-3 = assay: Antiproliferative activity against human PC-3 cells assessed as reduction in cell growth incubated for 72 hrs by SRB assay; format: functional, cell-based; details: PC-3, 72 h
SK-OV-3 = assay: Antiproliferative activity against human SK-OV-3 cells assessed as reduction in cell growth incubated for 72 hrs by SRB assay; format: functional, cell-based; details: SK-OV-3, 72 h
[5] = Cytotoxicity against human HDF cells assessed as reduction in cell growth incubated for 72 hrs by SRB assay; format: cell-based; details: HDFa
[6] = Selectivity index, ratio of IC50 for cytotoxicity against human HDF cells to IC50 for cytotoxicity against human SK-OV-3 cells

Compound	IC50 (SK-BR-3) [µM]	selectivity ratio [1]	selectivity ratio [2]	selectivity ratio [3]	IC50 (A549) [µM]	IC50 (U-87 MG) [µM]	selectivity ratio [4]	IC50 (PC-3) [µM]	IC50 (SK-OV-3) [µM]	IC50 [5] [µM]	Ratio IC50 [6]
CO[C@H]1/C=C\C=C(/C)C(=O)NC2=CC(=O)C(NCCO)=C(C[C@@H](C)C[C@H](OC)[C@H](O)[C@@H](C)/C=C(\C)[C@@H]1OC(N)=O)C2=O	1.13	3.51	2.9	3.78	1.05	1.25	3.18	1.37	1.11	3.97	3.58
C#CCNC1=C2C[C@@H](C)C[C@H](OC)[C@H](O)[C@@H](C)/C=C(\C)[C@H](OC(N)=O)[C@@H](OC)/C=C\C=C(/C)C(=O)NC(=CC1=O)C2=O	4.44	1.77	2.18	1.74	4.52	4.01	1.97	3.61	4.15	7.88	1.9
CO[C@H]1/C=C\C=C(/C)C(=O)NC2=CC(=O)C(NCCCN3CCCC3)=C(C[C@@H](C)C[C@H](OC)[C@H](O)[C@@H](C)/C=C(\C)[C@@H]1OC(N)=O)C2=O	2.06	3.58	2.7	2.83	2.61	2.04	3.62	2.73	2.82	7.38	2.62
CO[C@H]1/C=C\C=C(/C)C(=O)NC2=CC(=O)C(NCC3COCCOCCOCCOCCO3)=C(C[C@@H](C)C[C@H](OC)[C@H](O)[C@@H](C)/C=C(\C)[C@@H]1OC(N)=O)C2=O (stereo partly specified)	–	2.48	2.26	2.75	2.08	2.99	1.91	2.33	2.94	5.71	1.94
CO[C@H]1/C=C\C=C(/C)C(=O)NC2=CC(=O)C(NCCCCCCO)=C(C[C@@H](C)C[C@H](OC)[C@H](O)[C@@H](C)/C=C(\C)[C@@H]1OC(N)=O)C2=O	2.07	2.89	2.67	2.16	2.77	2.08	2.88	2.24	2.19	5.99	2.74
CO[C@H]1/C=C\C=C(/C)C(=O)NC2=CC(=O)C(NCc3ccc(CS(N)(=O)=O)cc3)=C(C[C@@H](C)C[C@H](OC)[C@H](O)[C@@H](C)/C=C(\C)[C@@H]1OC(N)=O)C2=O	2.06	2.41	2.9	–	2.02	2.74	1.81	1.78	2	4.96	2.48
CO[C@H]1/C=C\C=C(/C)C(=O)NC2=CC(=O)C(NCc3cccc(CS(=O)(=O)N(C(C)C)C(C)C)c3)=C(C[C@@H](C)C[C@H](OC)[C@H](O)[C@@H](C)/C=C(\C)[C@@H]1OC(N)=O)C2=O	2.48	2.17	1.95	1.81	2.97	2.39	2.25	2.75	2.05	5.37	2.62
CO[C@H]1/C=C\C=C(/C)C(=O)NC2=CC(=O)C(NC3CCN(Cc4ccccc4)CC3)=C(C[C@@H](C)C[C@H](OC)[C@H](O)[C@@H](C)/C=C(\C)[C@@H]1OC(N)=O)C2=O	1.77	2.76	4.83	2.9	1.68	1.1	4.14	1.01	1.85	4.88	2.64
CO[C@H]1/C=C\C=C(/C)C(=O)NC2=CC(=O)C(NCCOCCO)=C(C[C@@H](C)C[C@H](OC)[C@H](O)[C@@H](C)/C=C(\C)[C@@H]1OC(N)=O)C2=O	2.05	2.43	2.55	2.32	2.15	2.66	1.88	1.96	2.51	4.99	1.99
CO[C@H]1/C=C\C=C(/C)C(=O)NC2=CC(=O)C(NNC3=NCCN3)=C(C[C@@H](C)C[C@H](OC)[C@H](O)[C@@H](C)/C=C(\C)[C@@H]1OC(N)=O)C2=O	2.09	1.88	1.26	1.45	2.71	2.09	1.88	3.11	2.47	3.92	1.59
CO[C@H]1/C=C\C=C(/C)C(=O)NC2=CC(=O)C(NC3CCC(O)CC3)=C(C[C@@H](C)C[C@H](OC)[C@H](O)[C@@H](C)/C=C(\C)[C@@H]1OC(N)=O)C2=O (stereo partly specified)	3.83	2.14	2.49	2.47	3.31	3.71	2.21	3.29	3.16	8.19	2.59
CCOC(=O)[C@@H](N)CCCCNC1=C2C[C@@H](C)C[C@H](OC)[C@H](O)[C@@H](C)/C=C(\C)[C@H](OC(N)=O)[C@@H](OC)/C=C\C=C(/C)C(=O)NC(=CC1=O)C2=O	1.37	2.33	2.53	2.29	1.39	1.05	3.04	1.26	1.09	3.19	2.93
CO[C@H]1/C=C\C=C(/C)C(=O)NC2=CC(=O)C(NCc3ccccc3F)=C(C[C@@H](C)C[C@H](OC)[C@H](O)[C@@H](C)/C=C(\C)[C@@H]1OC(N)=O)C2=O	1.84	1.46	1.77	2.38	1.13	1.04	2.59	1.52	1.35	2.69	1.99
CO[C@H]1/C=C\C=C(/C)C(=O)NC2=CC(=O)C(NC3CCN(C(C)=O)CC3)=C(C[C@@H](C)C[C@H](OC)[C@H](O)[C@@H](C)/C=C(\C)[C@@H]1OC(N)=O)C2=O	1.03	4.07	2.52	4.32	0.97	1.12	–	1.66	1.73	4.19	2.42
CO[C@H]1/C=C\C=C(/C)C(=O)NC2=CC(=O)C(NCCCCO)=C(C[C@@H](C)C[C@H](OC)[C@H](O)[C@@H](C)/C=C(\C)[C@@H]1OC(N)=O)C2=O	1.63	2.15	2.11	2.15	1.63	1.6	2.19	1.66	1.59	3.51	2.21
CCCCOCCOCCNC1=C2C[C@@H](C)C[C@H](OC)[C@H](O)[C@@H](C)/C=C(\C)[C@H](OC(N)=O)[C@@H](OC)/C=C\C=C(/C)C(=O)NC(=CC1=O)C2=O	1.02	2.59	1.78	2.22	1.19	1.22	2.16	1.48	1.66	2.64	1.59
CO[C@H]1/C=C\C=C(/C)C(=O)NC2=CC(=O)C(NCc3cccc(N4CCOC4=O)c3)=C(C[C@@H](C)C[C@H](OC)[C@H](O)[C@@H](C)/C=C(\C)[C@@H]1OC(N)=O)C2=O	3.39	3.13	3.51	3.02	3.73	3.18	3.55	3.21	3.03	11.3	3.72
CO[C@H]1/C=C\C=C(/C)C(=O)NC2=CC(=O)C(NCCN3CCCC3=O)=C(C[C@@H](C)C[C@H](OC)[C@H](O)[C@@H](C)/C=C(\C)[C@@H]1OC(N)=O)C2=O	2.05	1.4	1.57	1.8	1.6	1.77	1.63	1.83	1.54	2.88	1.87
COc1c(O)cc2cc1C[C@@H](C)C[C@H](OC)[C@H](O)[C@@H](C)/C=C(\C)[C@H](OC(N)=O)[C@@H](OC)CC/C=C(\C)C(=O)N2 [REBLASTATIN]	0.6	53	54	–	–	–	–	0.018	0.125	–	54
